{"source": "patent US20250066840A1", "about": "“Single-cell RNA sequencing analysis pipeline for predicting cell sensitivities to various drugs” (Regents of the University of Minnesota, priority 2023, published 2025)", "key": {"[1]": {"conditions": "patients, cited from earlier work"}, "[2]": {"tested_on": "docetaxel sensitive DU145 cells", "experiment": "WST-1 cell viability, docetaxel-sensitive (control) DU145 cells", "assay_type": "cell-based", "conditions": "Homo sapiens, DU-145, 72-hour drug exposure", "procedure": "A DU145 prostate cancer cell line was obtained from American Type Culture […] (ATCC) and cultured in RPMI 1640 medium (Thermo Fisher Scientific), supplemented with 10% fetal bovine serum (FBS) (Gibco, Thermo Fisher Scientific) and maintained at 37° C. with 5% CO2. A docetaxel-resistant cell line model for DU145 was established by chronically exposing the parent cell line to stepwise increasing concentrations of docetaxel as previously described(41,42). Both cell lines were periodically monitored for mycoplasma using the Universal Mycoplasma Detection Kit following the manufacturer's protocol (A TCC). […]\nDocetaxel-resistant and control DU145 cells were trypsinized, harvested, counterstained with Hoechst 33342 Fluorescent Stain (Thermo Scientific, Pierce Biotechnology, Rockford, IL) and resuspended in full growth media to 5×10^4 cells per mL prior to plating in 96-well microplates (Thermo Scientific) using a seeding density of 5×10^3 cells per well and allowed to attach for 24 hours. […] Cell viability for each well was measured following a 72-hour drug exposure using the WST-1 assay [(Roche Applied. Science, Penzberg, Upper Bavaria, Germany) following the manufacturer's protocol. Absorbance at the 450 nm wavelength was assessed using the Synergy HTX Multi-Mode Plate Reader (BioTek, Winooski, VT)]. […]"}, "[3]": {"tested_on": "docetaxel resistant DU145 cells", "experiment": "WST-1 cell viability, docetaxel-resistant DU145 cells", "assay_type": "cell-based", "conditions": "for IC50: docetaxel resistant DU145 cells, 72-hour drug exposure, WST-1, read-out: mean half maximal inhibitory concentration (IC50)", "procedure": "A DU145 prostate cancer cell line was obtained from American Type Culture […] (ATCC) and cultured in RPMI 1640 medium (Thermo Fisher Scientific), supplemented with 10% fetal bovine serum (FBS) (Gibco, Thermo Fisher Scientific) and maintained at 37° C. with 5% CO2. A docetaxel-resistant cell line model for DU145 was established by chronically exposing the parent cell line to stepwise increasing concentrations of docetaxel as previously described(41,42). Both cell lines were periodically monitored for mycoplasma using the Universal Mycoplasma Detection Kit following the manufacturer's protocol (A TCC). In vitro drug screening in both the docetaxei-resistant and control DU145 nodels was performed using either vemurafenib (PLX4032; CAS No. 918504-65-1) or docetaxel (RP-56976; CAS No. 114977-28-5) obtained from MedChem Express (Monmriouth Junction NJ, USA) dissolved in dimethylsulfoxide (DMSO) to obtain stock concentrations of 100 mM for vemurafenib or 5 mM for docetaxel.\nDocetaxel-resistant and control DU145 cells were trypsinized, harvested, counterstained with Hoechst 33342 Fluorescent Stain (Thermo Scientific, Pierce Biotechnology, Rockford, IL) and resuspended in full growth media to 5×10^4 cells per mL prior to plating in 96-well microplates (Thermo Scientific) using a seeding density of 5×10^3 cells per well and allowed to attach for 24 hours. Following incubation, cells were treated with different concentrations of either docetaxel ranging from 0.92 nM to 6 uM, or vemurafenib ranging from 2.5 uM to 50 uM. Cell viability for each well was measured following a 72-hour drug exposure using the WST-1 assay [(Roche Applied. Science, Penzberg, Upper Bavaria, Germany) following the manufacturer's protocol. Absorbance at the 450 nm wavelength was assessed using the Synergy HTX Multi-Mode Plate Reader (BioTek, Winooski, VT)]. Absorbance values for each well were used to calculate percent viability relative to the no drug condition. […]"}, "mesoderm-like cells": {"tested_on": "mesoderm-like cells", "conditions": "RMS oPDX, Patel et al., 2022; cited from earlier work"}, "CFPAC1 cells": {"tested_on": "CFPAC1 cells", "conditions": "Raghavan et al., 2021; cited from earlier work"}, "PDAC organoids": {"tested_on": "PDAC organoids", "conditions": "Shinkawa T et al, 2022; cited from earlier work"}}, "note": "Like-named read-outs stand apart in the source and are kept apart here."}
{"smiles": "CCCS(=O)(=O)Nc1ccc(F)c(C(=O)c2c[nH]c3ncc(-c4ccc(Cl)cc4)cc23)c1F", "note": "[vemurafenib]", "values": [{"measurement": "average maximum serum concentration (Cmax)", "setting": "[1]; previous trial (Zhang W et al., 2017)", "result": 61.4, "unit": "µg/mL"}, {"measurement": "average maximum serum concentration (Cmax)", "setting": "[1]; previous trial, equivalent of 61.4 μg/mL", "result": 125.3, "unit": "μM/L"}, {"measurement": "tolerability at Cmax", "setting": "[1]; previous trial", "result": "well tolerated"}, {"measurement": "IC50", "setting": "[2]", "result": 27.9, "unit": "µM"}, {"measurement": "IC50", "setting": "[3]; Homo sapiens, DU-145, 72 h", "result": 12.8, "unit": "µM"}, {"measurement": "IC50", "setting": "[3]", "result": 12.9, "unit": "µM"}]}
{"smiles": "CCc1c2c(nc3ccc(OC(=O)N4CCC(N5CCCCC5)CC4)cc13)-c1cc3c(c(=O)n1C2)COC(=O)[C@]3(O)CC", "note": "[irinotecan]", "values": [{"measurement": "response of mesoderm-like cells compared to myoblast cells", "setting": "mesoderm-like cells", "result": "highly resistant"}]}
{"smiles": "CCc1c2c(nc3ccc(O)cc13)-c1cc3c(c(=O)n1C2)COC(=O)[C@]3(O)CC", "note": "[SN-38]", "values": [{"measurement": "response of CFPAC1 cells grown in complete classical organoid media", "setting": "CFPAC1 cells", "result": "responsive"}]}
{"smiles": "CC(=O)O[C@@]12CO[C@@H]1C[C@H](O)[C@@]1(C)C(=O)[C@H](O)C3=C(C)[C@@H](OC(=O)[C@H](O)[C@@H](NC(=O)OC(C)(C)C)c4ccccc4)C[C@@](O)([C@@H](OC(=O)c4ccccc4)[C@H]21)C3(C)C", "note": "[docetaxel]", "values": [{"measurement": "percent viability, resistant vs sensitive DU145 cells", "setting": "[3]; docetaxel exposure, FIG. 9, two-way ANOVA", "result": "higher resistance"}]}
{"smiles": "Nc1ccn([C@@H]2O[C@H](CO)[C@@H](O)C2(F)F)c(=O)n1", "note": "[Gemcitabine]", "values": [{"measurement": "response of basal-like vs classical-like PDAC organoids", "setting": "PDAC organoids", "result": "higher resistance"}]}
{"smiles": "CC(=O)O[C@H]1C(=O)[C@@]2(C)[C@H]([C@H](OC(=O)c3ccccc3)[C@]3(O)C[C@H](OC(=O)[C@H](O)[C@@H](NC(=O)c4ccccc4)c4ccccc4)C(C)=C1C3(C)C)[C@]1(OC(C)=O)CO[C@@H]1C[C@@H]2O", "note": "[Paclitaxel]", "values": [{"measurement": "response of CFPAC1 cells grown in complete classical organoid media", "setting": "CFPAC1 cells", "result": "responsive"}]}
